Data: patent US20050119301A1, “Treatment of restenosis” (priority 2001, published 2005)
Entries after “also recorded” stand apart in the source; their conditions may differ.

Assays:
[1] = test system: rat isolated aortic rings; assay: Protection against endothelium damage induced by oxidised LDL, acetylcholine dilatation (Protocol 3)
Experimental: Male Sprague-Dawley rats (250±50 g) were gassed with 80% CO2 and 20% O2 until killed. The thoracic aorta was excised and quickly placed in ice-cold Krebs modified solution composed of NaCl […], […] 4.7 mM, MgSO4 7H2O 1.17 mM, NaHCO3 25 mM, KH2PO4 1.18 mM, CaCl2 2.5 mM, glucose 11 mM and EDTA 0.03 mM. It was then trimmed of fat and connective tissue and cut into 2-3 mm wide rings. Each ring was mounted on two parallel stainless steel hooks in a single water-jacketed 3 ml organ bath containing modified Krebs solution maintained at 37° C. and bubbled with 95% O2 plus 5% CO2. The lower hook was attached to a movable support leg and the upper hook to an FTO3 force transducer (Grass Scientific Instruments, Mitutoyo, Japan) for isometric recordings. Changes in force were amplified (Quadbridge amplifier, Scientific Concepts Inc., Victoria, Australia) and recorded on a MacLab 8E data acquisition system (Adinstruments Pty Ltd., NSW, Australia) linked to an Apple computer (Apple Computer Inc, Cupertina, Calif.). Rings were set at an initial tension of 2 g and allowed to equilibrate for 30 minutes after which time they were re-set to 2 g tension before the commencement of each experimental protocol.
Full concentration response curves to phenylephrine were constructed from which the concentration giving a submaximal contraction of approximately 80% was selected (usually 0.3 μM). Tissues were then constricted with phenylephrine at the selected concentration and allowed to plateau. Full concentration dilatory curves were then constructed to acetylcholine. […]
Human plasma was obtained from the blood bank. […] The protein content of the final LDL fraction obtained was determined by the simplified protein assay method of Lowry. […]
Contractile responses are expressed in g tension (mean+standard error of the mean). Dilatory responses are expressed as a percentage of the contractile force generated by the pre-constricting agent used. […]

[2] = test system: Human umbilical vein endothelial cells; assay: Endothelial cell migration (wound) assay; assay type: cell-based; parameters: dose or concentration left out as unconfirmed; details: after 30 hours
Experimental: Human umbilical vein endothelial cells between passage 1 and 3 were used. They were grown in gelatin coated flasks in medium 199 with Earle's Salts supplemented with 20% foetal calf serum, 25 mg/ml endothelial cell growth supplement and 25 mg/ml heparin.
5×10^5 cells per well in growth medium were plated onto fibronectin coated 6 well trays and grown to confluence. A wound was produced along the monolayer with the use of a cell scraper (Costar). The cells were then washed once and fresh medium with the test compounds was added. Defined points along the wound were marked using an ink condenser (Olympus microscopes) allowing the movement of cells to be visualized at constant points over the next 48 hours. Photographs were taken at relevant times and the degree of cell movement from the wound front assessed.

Oc1ccc(C2COc3cc(O)ccc3C2O)cc1 (stereo not drawn) [Cpd. 8]
potency of protective effect against ox-LDL relative to 17β-estradiol [1]: at least 10 times | protective effect against ox-LDL inhibition of acetylcholine dilatation (in words) ([1]; ox-LDL 0.3 mg protein/ml, β-estradiol 10 pg/ml, Cpd. 5 300 ng/ml, Cpd. 7 1 μg/ml, Cpd. 8 and 12 3 μg/ml): diminished the inhibitory effect of ox-LDL; also recorded: significantly protects against endothelium damage by oxidized LDL

Oc1ccc(C2=Cc3ccc(O)cc3OC2)cc1 [Cpd. 12]
endothelial cell migration towards the wound [2]: markedly inhibited endothelial cell migration
